Here are results for 17 molecules from patent US9067931B2, “2-heteroaryl carboxamides” (BAYER INTELLECTUAL PROPERTY GMBH, priority 2002, dated 2015).

Where a name gives a salt, the structure may show the parent alone.

The assay concerns the target α7 nAChR (Rattus norvegicus (Rat), UniProt Q05941). In words: Inhibition of [3H]-methyllycaconitine binding to rat brain membranes. The conditions noted are these: [3H]-methyllycaconitine displacement, rat brain membranes (hippocampus or whole brain), Ki=IC50/(1+L/KD). Here is the method: Determination of the Affinity of Test Substaces for α7 nAChR by Inhibition of [^3H]-Methyllycaconitine Binding to Rat Brain Membranes
The [^3H]-methyllycaconitine binding assay is a modification of the method described by Davies et al. in Neuropharmacol. 1999, 38, 679-690.
Rat brain tissue (hippocampus or whole brain) is homogenized in homogenization buffer (10% w/v, 0.32 M sucrose, 1 mM EDTA, 0.1 mM phenylmethylsulphonyl fluoride (PMSF), 0.01% (w/v) NaN3, pH 7.4, 4° C.) at 600 rpm in a glass homogenizer. The homogenate is centrifuged (1000×g, 4° C., 10 min) and the supernatant is removed. The pellet is resuspended (20% w/v) and the suspension is centrifuged (1000×g, 4° C., 10 min). The two supernatants are combined and centrifuged (15 000×g, 4° C., 30 min). The pellet obtained in this way is referred to as the P2 fraction.
The P2 pellet is suspended in binding buffer (50 mM Tris-HCl, 1 mM MgCl2, 120 mM NaCl, 5 mM KCl, 2 mM CaCl2, pH 7.4), and the suspension is centrifuged (15 000×g, 4° C., 30 min), twice.
The residue is resuspended in binding buffer and incubated in a volume of 250 μl (amount of membrane protein 0.1-0.5 mg) in the presence of 1-5 nM [^3H]-methyllycaconitine 0.1% (w/v) BSA (bovine serum albumin) and various concentrations of the test substance at 21° C. for 2.5 h. […] in the presence of 1 μM α-bungarotoxin or 100 μM nicotine or 10 μM MLA (methyllycaconitine).
The incubation is stopped by adding 4 ml PBS (20 mM Na2HPO4, 5 mM KH2PO4, 150 mM NaCl, pH 7.4, 4° C.) and filtering through type A/E glass fibre filters (Gelman Sciences) which have previously been placed in 0.3% (v/v) polyethyleneimine (PEI) for 3 h. The filters are washed twice with 4 ml of PBS (4° C.), and the bound radioactivity is determined by scintillation measurement. All the assays are carried out in triplicate. The dissociation constant K1 of the test substance was determined from the IC50 of the compounds (concentration of the test substance at which 50% of the ligand bound to the receptor is displaced), the dissociation constant KD and the concentration L of [^3H]-methyllycaconitine using the equation Ki=IC50/(1+L/KD).

α7 nAChR, sequence (Q05941 23-502): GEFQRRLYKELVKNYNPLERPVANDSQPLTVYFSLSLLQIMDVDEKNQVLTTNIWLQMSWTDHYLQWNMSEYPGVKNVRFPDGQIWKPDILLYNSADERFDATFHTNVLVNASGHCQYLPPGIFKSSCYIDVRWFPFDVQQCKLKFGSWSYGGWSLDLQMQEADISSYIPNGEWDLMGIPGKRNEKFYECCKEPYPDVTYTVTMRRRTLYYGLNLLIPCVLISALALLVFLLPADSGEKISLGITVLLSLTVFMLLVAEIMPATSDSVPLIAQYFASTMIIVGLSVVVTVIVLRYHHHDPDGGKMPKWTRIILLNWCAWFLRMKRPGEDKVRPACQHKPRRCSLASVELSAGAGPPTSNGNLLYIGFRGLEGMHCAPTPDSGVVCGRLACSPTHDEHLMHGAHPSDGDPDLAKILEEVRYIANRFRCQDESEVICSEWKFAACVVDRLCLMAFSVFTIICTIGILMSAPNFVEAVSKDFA

Regarding `O=C(N[C@H]1CN2CCC1CC2)c1cc2ccc(-c3ccc(CO)cc3)cc2o1` [Example 3, N-[(3R)-1-Azabicyclo[2.2.2]oct-3-yl]-6-[4-(hydroxymethyl)phenyl]-1-benzofuran-2-carboxamide], the affinity, expressed as Ki, was 60 nM.

Take `O=C(N[C@H]1CN2CCC1CC2)c1cc2ccc(-c3ccc(N4CCOCC4)cc3)cc2o1` [Example 4, N-[(3R)-1-Azabicyclo[2.2.2]oct-3-yl]-6-[4-(4-morpholinyl)phenyl]-1-benzofuran-2-carboxamide]: affinity was put at a Ki of 24 nM.

Molecule `COc1cccc(-c2cccc3cc(C(=O)N[C@H]4CN5CCC4CC5)sc23)c1` [Example 17, N-[(3R)-1-Azabicyclo[2.2.2]oct-3-yl]-7-(3-methoxyphenyl)-1-benzothiophene-2-carboxamide hydrochloride] had a Ki of 17 nM.

In turn, `O=C(N[C@H]1CN2CCC1CC2)c1cc2cccc(-c3ccc(N4CCOCC4)cc3)c2s1` [Example 19, N-[(3R)-1-Azabicyclo[2.2.2]oct-3-yl]-7-[4-(4-morpholinyl)phenyl]-1-benzothiophene-2-carboxamide hydrochloride] came in with a Ki of 20 nM.

`O=C(N[C@H]1CN2CCC1CC2)c1cc2cccc(-c3ccc(CO)cc3)c2s1` [Example 20, N-[(3R)-1-Azabicyclo[2.2.2]oct-3-yl]-7-[4-(hydroxymethyl)phenyl]-1-benzothiophene-2-carboxamide hydrochloride]: the Ki came to 1.6 nM.

Turning to `NCc1ccccc1-c1cccc2cc(C(=O)N[C@H]3CN4CCC3CC4)sc12` [Example 73, 7-[2-(Aminomethyl)phenyl]-N-[(3R)-1-azabicyclo[2.2.2]oct-3-yl]-1-benzothiophene-2-carboxamide dihydrochloride], the Ki is < 1 nM.

As for `O=C(O)c1cccc(-c2cccc3cc(C(=O)N[C@H]4CN5CCC4CC5)sc23)c1` [Example 75, 3-(2-{[(3R)-1-Azabicyclo[2.2.2]oct-3-ylamino]carbonyl}-1-benzothien-7-yl)-benzoic acid hydrochloride], the Ki is < 0.1 nM.

As to `O=C(N[C@H]1CN2CCC1CC2)c1cc2cccc(-c3ccc(N4CCOCC4=O)cc3)c2o1` [Example 90, N-[(3R)-1-Azabicyclo[2.2.2]oct-3-yl]-7-[4-(3-oxo-4-morpholinyl)phenyl]-1-benzofuran-2-carboxamide hydrochloride], the Ki is 14 nM.

In turn, `COc1ccccc1-c1cccc2cc(C(=O)N[C@H]3CN4CCC3CC4)oc12` [Example 102, N-[(3R)-1-Azabicyclo[2.2.2]oct-3-yl]-7-[2-(methoxy)phenyl]-1-benzofuran-2-carboxamide hydrochloride] showed a Ki (hydrochloride) of 62 nM.

Molecule `CCNC(=O)Nc1cccc(-c2cccc3cc(C(=O)N[C@H]4CN5CCC4CC5)oc23)c1` [Example 108, N-[(3R)-1-Azabicyclo[2.2.2]oct-3-yl]-7-(3-{[(ethylamino)carbonyl]amino}phenyl)-1-benzofuran-2-carboxamide hydrochloride] displayed a Ki of 17 nM.

On to `O=C(N[C@H]1CN2CCC1CC2)c1cc2cccc(-c3cccc(NC(=O)C4CC4)c3)c2o1` [Example 116, N-[(3R)-1-Azabicyclo[2.2.2]oct-3-yl]-7-{3-[(cyclopropylcarbonyl)amino]phenyl}-1-benzofuran-2-carboxamide hydrochloride], for which affinity was put at a Ki of 17 nM.

As for `COc1ccccc1-c1cccc2cc(C(=O)N[C@H]3CN4CCC3CC4)oc12` [Example 130, N-[(3R)-1-Azabicyclo[2.2.2]oct-3-yl]-7-[2-(methoxy)phenyl]-1-benzofuran-2-carboxamide], the affinity corresponds to a Ki of 26 nM.

In the case of `O=C(O)c1cccc(-c2cccc3cc(C(=O)N[C@H]4CN5CCC4CC5)oc23)c1` [Example 149, 3-(2-{[(3R)-1-Azabicyclo[2.2.2]oct-3-ylamino]carbonyl}-1-benzofuran-7-yl)-benzoic acid hydrochloride], affinity was put at a Ki of 97 nM.

Regarding `O=C(N[C@H]1CN2CCC1CC2)c1cc2cccc(-c3ccccc3CO)c2o1` [Example 150, N-[(3R)-1-Azabicyclo[2.2.2]oct-3-yl]-7-[2-(hydroxymethyl)phenyl]-1-benzofuran-2-carboxamide hydrochloride], the inhibitory constant (Ki) came to 35 nM.

For the molecule `COc1ccc(OC)c(-c2cccc3cc(C(=O)N[C@H]4CN5CCC4CC5)oc23)c1` [Example 151, N-[(3R)-1-Azabicyclo[2.2.2]oct-3-yl]-7-(2,5-dimethoxyphenyl)-1-benzofuran-2-carboxamide hydrochloride], the affinity, expressed as Ki, was 88 nM.

In turn, `CNC(=O)NCc1ccccc1-c1cccc2cc(C(=O)N[C@H]3CN4CCC3CC4)oc12` [Example 175, N-[(3R)-1-Azabicyclo[2.2.2]oct-3-yl]-7-[2-({[(methylamino)carbonyl]amino}-methyl)phenyl]-1-benzofuran-2-carboxamide hydrochloride] gave a Ki of 8.3 nM.

The molecule `O=C(N[C@H]1CN2CCC1CC2)c1cc2cccc(-c3ccccc3O)c2o1` [Example 186, N-[(3R)-1-Azabicyclo[2.2.2]oct-3-yl]-7-(2-hydroxyphenyl)-1-benzofuran-2-carboxamide] gave a Ki of 120 nM.

As a reminder, the Ki is the dissociation constant of the complex between target and ligand, obtained from inhibition or displacement.
